US6448405B1, “Steroid receptor modulator compounds and methods” (Ligand Pharmaceuticals Incorporated, priority 1994, dated 2002)
Read-outs that look alike come from different tables or passages of the source.

Legend:
human PR-B = target: T1, human PR-B (Homo sapiens, UniProt P06401); assay: Co-transfection assay, PR agonist and antagonist activity, CV-1 cells; assay type: cell-based; conditions: for EC50: agonist mode, read-out: PR Agonist CV-1 Cells Potency;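 for all read-outs here: luciferase reporter driven by a hormone response element, co-transfected with human PR-B into CV-1 monkey kidney cells, agonists raise and antagonists lower the reporter signal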
T1 construct: expressed in transfected cells; host or cells: CV-1 cells (African green monkey kidney fibroblasts), transient transfection
T1 sequence (P06401 1-933): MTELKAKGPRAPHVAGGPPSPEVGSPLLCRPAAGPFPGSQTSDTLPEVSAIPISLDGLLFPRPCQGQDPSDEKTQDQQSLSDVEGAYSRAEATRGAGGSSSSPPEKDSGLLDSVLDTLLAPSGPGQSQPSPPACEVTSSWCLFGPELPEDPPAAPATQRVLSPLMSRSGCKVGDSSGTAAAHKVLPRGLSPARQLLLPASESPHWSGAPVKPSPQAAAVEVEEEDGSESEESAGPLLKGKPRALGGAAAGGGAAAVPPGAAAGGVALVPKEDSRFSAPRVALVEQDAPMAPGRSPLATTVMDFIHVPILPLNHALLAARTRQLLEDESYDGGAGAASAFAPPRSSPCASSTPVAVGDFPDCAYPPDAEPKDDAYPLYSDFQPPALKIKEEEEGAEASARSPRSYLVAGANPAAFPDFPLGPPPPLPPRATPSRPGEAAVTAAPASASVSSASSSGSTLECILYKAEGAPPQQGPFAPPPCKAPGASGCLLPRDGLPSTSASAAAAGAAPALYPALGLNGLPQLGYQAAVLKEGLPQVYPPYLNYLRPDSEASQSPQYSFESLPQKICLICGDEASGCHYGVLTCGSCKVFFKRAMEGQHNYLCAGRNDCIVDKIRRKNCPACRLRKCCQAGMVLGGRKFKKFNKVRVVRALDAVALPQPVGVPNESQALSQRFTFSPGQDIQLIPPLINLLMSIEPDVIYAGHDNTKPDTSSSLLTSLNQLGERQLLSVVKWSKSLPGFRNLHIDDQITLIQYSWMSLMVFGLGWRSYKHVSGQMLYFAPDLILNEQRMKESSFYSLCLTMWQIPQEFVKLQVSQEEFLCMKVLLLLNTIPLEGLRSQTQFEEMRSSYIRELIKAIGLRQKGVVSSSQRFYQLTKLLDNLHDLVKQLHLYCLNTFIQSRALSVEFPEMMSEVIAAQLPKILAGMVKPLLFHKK

[1] = target: T2, human progesterone receptor A form (PR-A) (Homo sapiens, UniProt P06401); assay: PR binding assay, baculovirus extract, [3H] progesterone
T2 sequence (P06401 1-769 isoform P06401-2): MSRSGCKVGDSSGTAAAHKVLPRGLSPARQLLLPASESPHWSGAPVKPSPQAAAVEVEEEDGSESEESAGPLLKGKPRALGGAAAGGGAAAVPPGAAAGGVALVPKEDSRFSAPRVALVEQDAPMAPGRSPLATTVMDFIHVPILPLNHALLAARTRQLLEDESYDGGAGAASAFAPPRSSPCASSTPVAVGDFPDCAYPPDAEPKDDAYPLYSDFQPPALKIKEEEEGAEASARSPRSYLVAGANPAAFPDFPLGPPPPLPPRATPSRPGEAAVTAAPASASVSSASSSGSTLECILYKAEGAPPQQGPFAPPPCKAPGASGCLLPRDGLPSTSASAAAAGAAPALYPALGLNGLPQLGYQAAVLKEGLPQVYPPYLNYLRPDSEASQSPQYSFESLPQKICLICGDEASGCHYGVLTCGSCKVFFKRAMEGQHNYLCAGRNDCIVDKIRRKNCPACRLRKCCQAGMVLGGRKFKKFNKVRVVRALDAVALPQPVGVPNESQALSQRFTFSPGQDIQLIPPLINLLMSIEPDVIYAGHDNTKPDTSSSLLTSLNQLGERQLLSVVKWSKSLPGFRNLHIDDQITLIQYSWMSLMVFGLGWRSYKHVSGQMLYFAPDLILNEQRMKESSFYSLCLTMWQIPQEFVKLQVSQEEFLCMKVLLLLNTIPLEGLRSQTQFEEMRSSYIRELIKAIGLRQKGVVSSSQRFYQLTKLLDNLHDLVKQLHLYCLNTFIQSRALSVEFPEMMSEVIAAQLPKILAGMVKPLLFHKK

[2] = read-out: PR Antagonist CV-1 Cells Potency

IC50 (human PR-B) [µM]	Ki [1] [µM]	Structure (SMILES)	PR Agonist CV-1 Cells Efficacy (%) (human PR-B)	PR Antagonist CV-1 Cells Efficacy (%) (human PR-B)	EC50 (human PR-B) [µM]	IC50 (human PR-B; [2]) [µM]	Ki ([1]; read-out: PR Binding Ki) [µM]	Ki ([1]; competition with [3H] progesterone, 4° C., 16 hours, read-out: PR Binding Ki) [µM]
		CC1=CC(C)(C)Nc2ccc(-c3nn(C)cc3Br)cc21 [Compound 104, 6-(4-Bromo-1-methylpyrazol-3-yl)-1,2-dihydro-2,2,4-trimethylquinoline]	39%	71%	2.75	0.12	0.082	
		CCCO[C@@H]1[C@@H](C)c2c(ccc3c2[C@H](c2ccc(Cl)cc2)Oc2ccccc2-3)NC1(C)C (racemic) [Compound 400, (R/S-3l,4u,5u)-5-(4-Chlorophenyl)-1,2,3,4-tetrahydro-3-propyloxy-2,2,4-trimethyl-5H-chromeno[3,4-f]quinoline]	na (na = not active (i.e. efficacy or <20 and potency of >10,000))	68%	> 10	0.37	0.014	
> 10	0.003	CC1=CC(C)(C)Nc2ccc3c(c21)/C(=C/c1ccccc1F)Oc1ccccc1-3 [Compound 228, (Z)-5-(2-Fluorobenzylidene)-1,2-dihydro-2,2,4-trimethyl-5H-chromeno[3,4-f]quinoline]		na (key: na = not active (i.e. efficacy or <20 and potency of >10,000))	0.04			
		CC1=CC(C)(C)Nc2cc(C)c3c(c21)/C(=C/c1ccccc1)Oc1ccc(F)cc1-3 [Compound 377, (Z)-5-Benzylidene-9-Fluoro-1,2-dihydro-2,2,4,11-tetramethyl-5H-chromeno[3,4-f]quinoline]	101%	na (na = not active (i.e. efficacy or <20 and potency of >10,000))	0.55	> 10	0.02	
		CC1(C)C=Cc2c(ccc3c2/C(=C/c2ccccc2)Oc2ccc(Cl)cc2-3)N1 [Compound 368, (Z)-5-Benzylidene-9-chloro-1,2-dihydro-2,2-dimethyl-5H-chromeno[3,4-f]quinoline]	183%	na (na = not active (i.e. efficacy or <20 and potency of >10,000))	0.043	> 10	0.004	
		CC1=CC(C)(C)Nc2ccc(-c3cccc([N+](=O)[O-])c3)c(Cl)c21 [Compound 310, 5-Chloro-1,2-dihydro-2,2,4-trimethyl-6-(3-nitrophenyl)quinoline]	na (na = not active (i.e. efficacy or <20 and potency of >10,000))	70%	> 10	0.26	0.007	
		CC1=CC(C)(C)Nc2c(F)cc(-c3cccc([N+](=O)[O-])c3)cc21 [Compound 291, 8-Fluoro-1,2-dihydro-2,2,4-trimethyl-6-(3-nitrophenyl)quinoline]	na (na = not active (i.e. efficacy or <20 and potency of >10,000))	79%	> 10	0.046	0.004	
		CC1=CC(C)(C)Nc2ccc3c(c21)COc1c(Cl)cccc1-3 [Compound 331, (R/S)-7-Chloro-1,2-dihydro-2,2,4-trimethyl-5H-chromeno[3,4-f]quinoline]	na (na = not active (i.e. efficacy or <20 and potency of >10,000))	88%	> 10	0.21		0.273
> 10	0.001	CC1=CC(C)(C)Nc2ccc3c(c21)/C(=C/c1ccccc1)Oc1ccccc1-3 [Compound 220, (Z)-5-Benzylidene-1,2-dihydro-2,2,4-trimethyl-5H-chromeno[3,4-f]quinoline]		na (key: na = not active (i.e. efficacy or <20 and potency of >10,000))	0.033			
0.024	0.017	CC1=CC(C)(C)Nc2ccc(-c3csc(C#N)c3)cc21 [Compound 452, 6-(5-Cyano-3-thienyl)-1,2-dihydro-2,2,4-trimethylquinoline]			2.4			
> 10	0.004	CC1=CC(C)(C)Nc2ccc3c(c21)/C(=C/c1ccc(F)cc1)Oc1ccccc1-3 [Compound 221, (Z)-5-(4-Fluorobenzylidene)-1,2-dihydro-2,2,4-trimethyl-5H-chromeno[3,4-f]quinoline]		na (key: na = not active (i.e. efficacy or <20 and potency of >10,000))	0.117			
		CC1=CC(C)(C)Nc2ccc(-n3cnc(Cl)c3Cl)cc21 [Compound 103, 6-(4,5-Dichloroimidazol-1-yl)-1,2-dihydro-2,2,4-trimethylquinoline]	na (na = not active (i.e. efficacy or <20 and potency of >10,000))	91%	> 10	0.78	0.372	
